Measured values: patent publication US20030091978A1, “Assay for glucocorticoid receptor signalling pathway” (priority 2000, published 2003)
Values belong to the compound of their own block, whether it stands above or below them.

Assays:
Type in all cases: cell-based
[1] = system: GRE-mediated gene transcription; experiment: A549-GRE-Renilla luciferase reporter assay; conditions: A549-GRE-Renilla cells
Text: A synthetic GR responsive promoter consisting of three copies of the consensus glucocorticoid responsive element (GRE) (AGAACAnnnTGTACC) linked to a minimal herpes simplex thymidine kinase (HSV-TK) promoter was derived from the pGRE-SEAP plasmid purchased from Clontech. This was placed upstream of the Renilla luciferase reporter gene, contained in the pRLNull vector (Promega), to create the reporter construct p3GRE-renilla. The GRE containing promoter together with the renilla luciferase gene were then subcloned into the pcDNA3 vector, deleted of the CMV promoter, in order to generate the construct p3GRE-renilla-neo.
(§1) A549 cells were maintained in 5% CO2 at 37° C. in DMEM containing 10% foetal calf serum and 2 mM L-glutamine. Cells were stably transfected with p5NFkB-firefly-neo, p3GRE-renilla-neo or pAPI-firefly-neo using electroporation procedure. […] These cell lines were maintained in DMEM containing 10% foetal calf serum, 2 mM L-glutamine and 1 mg/ml G418.
(§2) Cells were plated into individual wells of a white 96-well viewplate at a cell density of 4×10^4/well in 100 μl of growth medium.
This cell line will provide a means of measuring direct effects of glucocorticoid receptor agonists on GRE-mediated gene transcription.

[2] = system: AP-1 driven firefly-luciferase activity; experiment: A549-AP1-firefly luciferase reporter assay; conditions: A549-AP1-firefly cells, stimulation with 10 ng/ml EGF
Experimental: Similarly the minimal region of the Interleukin-2 promoter containing 4 AP-1 binding sites was cloned upstream of the firefly luciferase gene to generate pAP1-firefly-neo
as §1, §2
This cell line can therefore be used to monitor the repression of AP-1 signalling by glucocorticoid receptor ligands.

[3] = system: NFkB driven firefly luciferase activity; experiment: A549-NFkB-firefly luciferase reporter assay (FireLITE); conditions: A549-NFkB-firefly cells, stimulation with 0.5 ng/ml TNFα
Experimental: The firefly luciferase gene driven by a promoter containing five copies of the nuclear factor kB consensus sequence (GGGGACTTTCC) was derived from the pNF-kB-Luc plasmid, purchased from Stratagene, and subcloned into the pcDNA3 vector, deleted of the CMV promoter, in order to generate the construct p5NFkB-firefly-neo.
as §1, §2
The individual cell clones were first characterised for responsiveness in isolation.

Compound: C[C@@H]1C[C@H]2[C@@H]3CCC4=CC(=O)C=C[C@]4(C)[C@@]3(F)[C@@H](O)C[C@]2(C)[C@@]1(O)C(=O)CO [dexamethasone]
- maximal stimulation above basal of renilla luciferase activity [1]: 3 fold

- increase in expression of firefly luciferase [2]: 2.4 fold
Compound: EGF: stimulatory factor used to activate AP-1 driven transcription

- increase in firefly luciferase activity [3]: 4.2 fold
Compound: TNFα
